Results published in ChEMBL document CHEMBL1131854, “Design, synthesis and antimuscarinic activity of some imidazolium derivatives” (Bioorg Med Chem Lett, 1999).

How the values were obtained:
[1] = molecular target: Muscarinic acetylcholine receptors; M2 & M3 (Homo sapiens) (UniProt P20309+P08172); test: Selectivity ratio between Kb values of M2-receptor (atria) and M3-receptor (ileum); assay type: tissue-based; conditions: Cavia porcellus
[2] = molecular target: Muscarinic acetylcholine receptor M3 (Cavia porcellus) (UniProt Q8VH26); test: Antimuscarinic activity against muscarinic acetylcholine M3-receptor in guinea pig ileum; assay type: tissue-based
Chain of Muscarinic acetylcholine receptor M3 (Cavia porcellus) (Q8VH26 1-587): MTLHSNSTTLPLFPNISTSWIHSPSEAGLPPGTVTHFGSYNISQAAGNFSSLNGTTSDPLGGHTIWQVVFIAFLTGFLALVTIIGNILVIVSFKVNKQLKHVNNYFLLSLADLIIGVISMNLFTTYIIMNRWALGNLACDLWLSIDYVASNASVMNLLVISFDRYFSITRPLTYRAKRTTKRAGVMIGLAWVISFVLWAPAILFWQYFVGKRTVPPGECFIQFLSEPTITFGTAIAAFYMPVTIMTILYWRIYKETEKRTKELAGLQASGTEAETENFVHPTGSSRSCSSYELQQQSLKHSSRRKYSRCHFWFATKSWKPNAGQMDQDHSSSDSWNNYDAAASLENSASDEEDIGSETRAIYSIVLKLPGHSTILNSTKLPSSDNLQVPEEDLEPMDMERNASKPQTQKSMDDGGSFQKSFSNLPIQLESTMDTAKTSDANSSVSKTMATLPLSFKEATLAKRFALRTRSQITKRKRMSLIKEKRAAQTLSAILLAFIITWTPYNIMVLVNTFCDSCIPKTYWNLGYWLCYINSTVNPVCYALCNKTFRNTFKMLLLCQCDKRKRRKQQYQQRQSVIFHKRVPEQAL

| Ratio [1] | Kb [2] | SMILES |
| --- | --- | --- |
| 7.15 | 1.02 nM | Cc1ccc(C[n+]2ccn(CCC(C(N)=O)(c3ccccc3)c3ccccc3)c2C)cc1 |
| 13 |  | Cc1nccn1CCC(C(N)=O)(c1ccccc1)c1ccccc1 |
| 3.02 | 4.07 nM | CCC[n+]1ccn(CCC(C(N)=O)(c2ccccc2)c2ccccc2)c1C |
| 2.45 |  | CC(C)(C)c1nccn1CCC(C(N)=O)(c1ccccc1)c1ccccc1 |
| 13.5 |  | NC(=O)C(CCn1ccnc1)(c1ccccc1)c1ccccc1 |
| 4.36 | 5.62 nM | Cc1n(CCC(C(N)=O)(c2ccccc2)c2ccccc2)cc[n+]1Cc1cccc(Cl)c1 |
| 4.11 | 1.14 nM | CCc1n(CCC(C(N)=O)(c2ccccc2)c2ccccc2)cc[n+]1C |
| 9.94 | 0.639 nM | Cc1n(CCCC(C(N)=O)(c2ccccc2)c2ccccc2)cc[n+]1Cc1ccccc1 |
| 22.1 | 0.117 nM | Cc1n(CCC(C(N)=O)(c2ccccc2)c2ccccc2)cc[n+]1Cc1ccc(Br)cc1 |
| 9.32 | 0.647 nM | Cc1n(CCC(C(N)=O)(c2ccccc2)c2ccccc2)cc[n+]1Cc1ccc(Cl)cc1 |
| 5.28 | 0.858 nM | Cc1n(CCC(C(N)=O)(c2ccccc2)c2ccccc2)cc[n+]1Cc1ccc([N+](=O)[O-])cc1 |
| 3.39 |  | Cc1nccn1CCCCC(C(N)=O)(c1ccccc1)c1ccccc1 |
| 2.24 | 21.1 nM | Cc1ccccc1C[n+]1ccn(CCC(C(N)=O)(c2ccccc2)c2ccccc2)c1C |
| 1.3 | 7.11 nM | CC[n+]1ccn(CCC(C(N)=O)(c2ccccc2)c2ccccc2)c1C |
| 1.68 | 3.78 nM | Cc1n(CCC(C(N)=O)(c2ccccc2)c2ccccc2)cc[n+]1C |
| 5.67 | 11.8 nM | Cc1n(CCC(C(N)=O)(c2ccccc2)c2ccccc2)cc[n+]1Cc1ccccc1Cl |
| 1.44 |  | CCCc1nccn1CCC(C(N)=O)(c1ccccc1)c1ccccc1 |
| 1.74 | 12.5 nM | CCCc1n(CCC(C(N)=O)(c2ccccc2)c2ccccc2)cc[n+]1C |
| 26.2 | 0.756 nM | Cc1n(CCCCC(C(N)=O)(c2ccccc2)c2ccccc2)cc[n+]1Cc1ccccc1 |
| 3.3 |  | CCc1nccn1CCC(C(N)=O)(c1ccccc1)c1ccccc1 |
| 24.8 | 1.24 nM | Cc1n(CCC(C(N)=O)(c2ccccc2)c2ccccc2)cc[n+]1Cc1ccc(-c2ccccc2)cc1 |
| 5.83 | 3.12 nM | CCCC[n+]1ccn(CCC(C(N)=O)(c2ccccc2)c2ccccc2)c1C |
| 13.5 | 4.96 nM | Cc1n(CCC(C(N)=O)(c2ccccc2)c2ccccc2)cc[n+]1Cc1ccccc1 |
| 17.6 |  | Cc1nccn1CCCC(C(N)=O)(c1ccccc1)c1ccccc1 |
| 4.6 | 2.52 nM | Cc1cccc(C[n+]2ccn(CCC(C(N)=O)(c3ccccc3)c3ccccc3)c2C)c1 |
